Values joined by “and” are separate entries in the source; they are usually repeats but may differ in a detail not shown here. Equal entries are not always repeated. Inconclusive results and toxic doses are left out. No stated cut-off is given here; in the data, active means T/C of 150% or more; inactive means T/C below 125%.
System: L1210 leukemia ip in BDF1 mice, survival T/C
Assay: NCI In Vivo Anticancer Drug Screen. Data for tumor model L1210 Leukemia (intraperitoneal) in B6D2F1 (BDF1) mice
Conditions: endpoint: mean survival time, higher = longer survival
Procedure, shortened: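 Transplantable tumor model; survival measured in treated vs vehicle control mice. Value = treated/control.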

[1] = dose: 100.0 mg/kg/injection, schedule: Q01DX009 (ip), vehicle: Klucel (hydroxypropylcellulose) (HPC)
[2] = dose: 200.0 mg/kg/injection, schedule: Q01DX009 (ip), vehicle: Klucel (hydroxypropylcellulose) (HPC)
[3] = dose: 400.0 mg/kg/injection, schedule: Q01DX009 (ip), vehicle: Klucel (hydroxypropylcellulose) (HPC)
[4] = dose: 200.0 mg/kg/injection, schedule: Q01DX001 (ip), vehicle: carboxymethylcellulose (CMC)
[5] = dose: 400.0 mg/kg/injection, schedule: Q01DX001 (ip), vehicle: carboxymethylcellulose (CMC)
[6] = dose: 100.0 mg/kg/injection, schedule: Q04DX002 (ip), vehicle: saline with Tween-80
[7] = dose: 12.5 mg/kg/injection, schedule: Q01DX009 (ip), vehicle: saline
[8] = dose: 12.5 mg/kg/injection, schedule: Q04DX003 (ip), vehicle: saline
[9] = dose: 25.0 mg/kg/injection, schedule: Q01DX009 (ip), vehicle: saline
[10] = dose: 25.0 mg/kg/injection, schedule: Q04DX003 (ip), vehicle: saline
[11] = dose: 50.0 mg/kg/injection, schedule: Q04DX003 (ip), vehicle: saline
[12] = dose: 100.0 mg/kg/injection, schedule: Q04DX003 (ip), vehicle: saline
[13] = dose: 200.0 mg/kg/injection, schedule: Q04DX003 (ip), vehicle: saline
[14] = dose: 400.0 mg/kg/injection, schedule: Q04DX003 (ip), vehicle: saline

Measured: T/C

COc1cc(/C=N\N=C(/C)c2ccc(F)cc2)cc(OC)c1OC
inactive: [1] 87 % of control | [2] 86 % of control | [3] 89 % of control

CC/C(=N/N=C(N)N)c1ccc(NC(=O)Nc2ccc(/C(CC)=N/N=C(N)N)cc2)cc1
inactive: dose: 2.5 mg/kg/injection, schedule: Q01DX009 (ip), vehicle: saline 103 % of control | dose: 5.0 mg/kg/injection, schedule: Q01DX009 (ip), vehicle: saline 121 % of control | dose: 10.0 mg/kg/injection, schedule: Q01DX009 (ip), vehicle: saline 107 % of control

C/C(=N\n1c(-c2ccccc2)nc2ccccc2c1=O)c1ccc(C)cc1
inactive: [1] 98 % of control | [2] 96 % of control | [3] 100 % of control

Cc1cccc(N=Nc2ccc(O)cc2)c1
inactive: [1] 100 % of control | [2] 97 % of control | [3] 101 % of control

CCCCC(=O)N/N=C/c1ccccc1[N+](=O)[O-]
inactive: [4] 95 % of control | [5] 90 % of control

O=C(O)CC(NC(=O)OCc1ccccc1)c1ccccc1 (stereo not drawn)
inactive: dose: 100.0 mg/kg/injection, schedule: Q01DX001 (ip), vehicle: saline with Tween-80 92 % of control | dose: 100.0 mg/kg/injection, schedule: Q01DX009 (ip), vehicle: saline with Tween-80 93 % of control and 102 % of control | [6] 110 % of control | dose: 100.0 mg/kg/injection, schedule: Q04DX003 (ip), vehicle: saline with Tween-80 97 % of control | dose: 200.0 mg/kg/injection, schedule: Q01DX001 (ip), vehicle: saline with Tween-80 90 % of control | dose: 200.0 mg/kg/injection, schedule: Q01DX009 (ip), vehicle: saline with Tween-80 98 % of control and 91 % of control | dose: 200.0 mg/kg/injection, schedule: Q04DX002 (ip), vehicle: saline with Tween-80 95 % of control | dose: 200.0 mg/kg/injection, schedule: Q04DX003 (ip), vehicle: saline with Tween-80 92 % of control | dose: 400.0 mg/kg/injection, schedule: Q01DX001 (ip), vehicle: saline with Tween-80 92 % of control | dose: 400.0 mg/kg/injection, schedule: Q04DX002 (ip), vehicle: saline with Tween-80 100 % of control | dose: 400.0 mg/kg/injection, schedule: Q04DX003 (ip), vehicle: saline with Tween-80 93 % of control

CC(C)(C)C([NH-])=O.CC(C)(C)C([NH-])=O.[Cl][Pt+2][Cl]
inactive: dose: 6.25 mg/kg/injection, schedule: Q01DX009 (ip), vehicle: saline 86 % of control | [7] 94 % of control | [8] 116 % of control | [9] 101 % of control | [10] 102 % of control | [11] 109 % of control

O=C(O)C(F)(F)C(F)(F)C(F)(F)F.O=C(O)C(F)(F)C(F)(F)C(F)(F)F.O=C(O)C(F)(F)C(F)(F)C(F)(F)F.O=C(O)C(F)(F)C(F)(F)C(F)(F)F.[Rh].[Rh]
inactive: dose: 25.0 mg/kg/injection, schedule: Q04DX002 (ip), vehicle: saline with Tween-80 94 % of control | dose: 50.0 mg/kg/injection, schedule: Q04DX002 (ip), vehicle: saline with Tween-80 102 % of control | [6] 105 % of control

Cc1nc2ccccc2nc1CBr
inactive: dose: 3.2 mg/kg/injection, schedule: Q01DX009 (ip), vehicle: Klucel (hydroxypropylcellulose) (HPC) 103 % of control | dose: 6.3 mg/kg/injection, schedule: Q01DX009 (ip), vehicle: Klucel (hydroxypropylcellulose) (HPC) 100 % of control | dose: 12.5 mg/kg/injection, schedule: Q01DX009 (ip), vehicle: Klucel (hydroxypropylcellulose) (HPC) 105 % of control | dose: 12.5 mg/kg/injection, schedule: Q04DX003 (ip), vehicle: saline with Tween-80 98 % of control | dose: 25.0 mg/kg/injection, schedule: Q01DX009 (ip), vehicle: Klucel (hydroxypropylcellulose) (HPC) 97 % of control | dose: 25.0 mg/kg/injection, schedule: Q04DX003 (ip), vehicle: saline with Tween-80 89 % of control | dose: 50.0 mg/kg/injection, schedule: Q01DX009 (ip), vehicle: Klucel (hydroxypropylcellulose) (HPC) 102 % of control | dose: 50.0 mg/kg/injection, schedule: Q04DX003 (ip), vehicle: saline with Tween-80 98 % of control

COC(=O)C1C2C(C)=C3CCCCC3(C1C(=O)OC)C(C(=O)OC)C2C(=O)OC (stereo not drawn)
inactive: dose: 100.0 mg/kg/injection, schedule: Q01DX001 (ip), vehicle: saline 113 % of control | dose: 200.0 mg/kg/injection, schedule: Q01DX001 (ip), vehicle: saline 95 % of control | dose: 400.0 mg/kg/injection, schedule: Q01DX001 (ip), vehicle: saline 86 % of control

CC(C)C(=O)NNC(=O)C(C)C
inactive: dose: 100.0 mg/kg/injection, schedule: Q04DX003 (ip), vehicle: Klucel (hydroxypropylcellulose) (HPC) 100 % of control | dose: 200.0 mg/kg/injection, schedule: Q04DX003 (ip), vehicle: Klucel (hydroxypropylcellulose) (HPC) 108 % of control | dose: 400.0 mg/kg/injection, schedule: Q04DX003 (ip), vehicle: Klucel (hydroxypropylcellulose) (HPC) 106 % of control

CC(C)c1cc[n+](/C(C(=S)Nc2cccc(Cl)c2)=C(/[O-])c2ccc([N+](=O)[O-])cc2)cc1
inactive: [1] 105 % of control | [2] 91 % of control | [3] 94 % of control

O=S(=O)(O)c1ccccc1/C=N\N=C\c1ccccc1S(=O)(=O)O
inactive: dose: 100.0 mg/kg/injection, schedule: Q01DX009 (ip), vehicle: saline 107 % of control | [12] 107 % of control | dose: 200.0 mg/kg/injection, schedule: Q01DX009 (ip), vehicle: saline 112 % of control | [13] 107 % of control | dose: 265.0 mg/kg/injection, schedule: Q04DX003 (ip), vehicle: saline 107 % of control | dose: 400.0 mg/kg/injection, schedule: Q01DX009 (ip), vehicle: saline 105 % of control | [14] 104 % of control | dose: 600.0 mg/kg/injection, schedule: Q04DX003 (ip), vehicle: saline 93 % of control

CCOC1CC2c3ccccc3C1c1cccc[n+]12 (stereo not drawn)
inactive: [7] 100 % of control | [8] 100 % of control and 94 % of control | [9] 98 % of control | [10] 89 % of control and 101 % of control | dose: 50.0 mg/kg/injection, schedule: Q01DX009 (ip), vehicle: saline 94 % of control and 96 % of control | [11] 97 % of control and 101 % of control | dose: 75.0 mg/kg/injection, schedule: Q01DX009 (ip), vehicle: saline 88 % of control | [12] 98 % of control | [13] 107 % of control | [14] 86 % of control

O=C(O)C1CCCCC1
inactive: dose: 50.0 mg/kg/injection, schedule: Q01DX001 (ip), vehicle: carboxymethylcellulose (CMC) 96 % of control | dose: 100.0 mg/kg/injection, schedule: Q01DX001 (ip), vehicle: carboxymethylcellulose (CMC) 98 % of control | [4] 104 % of control | [5] 96 % of control

O=C1O[C@@H]2[C@@H](I)[C@@H]3C[C@@H]2[C@@H]1C3
inactive: dose: 5.0 mg/kg/injection, schedule: Q01DX001 (ip), vehicle: carboxymethylcellulose (CMC) 91 % of control | dose: 10.0 mg/kg/injection, schedule: Q01DX001 (ip), vehicle: carboxymethylcellulose (CMC) 93 % of control | dose: 20.0 mg/kg/injection, schedule: Q01DX001 (ip), vehicle: carboxymethylcellulose (CMC) 94 % of control | dose: 40.0 mg/kg/injection, schedule: Q01DX001 (ip), vehicle: carboxymethylcellulose (CMC) 91 % of control | dose: 80.0 mg/kg/injection, schedule: Q01DX001 (ip), vehicle: carboxymethylcellulose (CMC) 93 % of control

Reference: PubChem BioAssay AID248 (DTP/NCI, 2004)
